According to patent US20100137226A1, “FATIGUE-REDUCING AGENT” (KYOWA HAKKO BIO CO., LTD, priority 2006, published 2010):
Read-outs that look alike come from different tables or passages of the source.

Tested on: SD male rats bred under water immersion
Conditions: swim with burden of ca. 8% of body weight, n=4, FIG. 1

N[C@@H](CCC(=O)N[C@@H](CS)C(=O)NCC(=O)O)C(=O)O [glutathione, reduced glutathione]
swimming time (time until the tip of nose was submerged in water for 10 seconds or more) (reduced glutathione 800 mg/kg body weight orally once a day for 5 days of water immersion breeding): no change was recognized

Cl.NCCC[C@H](N)C(=O)O [ornithine, L-ornithine hydrochloride]
swimming time (time until the tip of nose was submerged in water for 10 seconds or more) (ornithine 1000 mg/kg body weight orally once a day for 5 days of water immersion breeding): recovery of the swimming time was recognized
